We go through 1 molecule from ChEMBL document CHEMBL2073988, “Secretory transport of methylprednisolone possibly mediated by P-glycoprotein in Caco-2 cells” (Biol Pharm Bull, 2002).

This series has as its target ATP-dependent translocase ABCB1 (Homo sapiens, UniProt P08183). In words: TP_TRANSPORTER: transepithelial transport (basal to apical), inhibited by Verapamil in Caco-2 cells. The class given is functional, cell-based. (Caco-2 monolayers are a common model of the intestinal barrier.)

Chain of ATP-dependent translocase ABCB1 (P08183 whole entry): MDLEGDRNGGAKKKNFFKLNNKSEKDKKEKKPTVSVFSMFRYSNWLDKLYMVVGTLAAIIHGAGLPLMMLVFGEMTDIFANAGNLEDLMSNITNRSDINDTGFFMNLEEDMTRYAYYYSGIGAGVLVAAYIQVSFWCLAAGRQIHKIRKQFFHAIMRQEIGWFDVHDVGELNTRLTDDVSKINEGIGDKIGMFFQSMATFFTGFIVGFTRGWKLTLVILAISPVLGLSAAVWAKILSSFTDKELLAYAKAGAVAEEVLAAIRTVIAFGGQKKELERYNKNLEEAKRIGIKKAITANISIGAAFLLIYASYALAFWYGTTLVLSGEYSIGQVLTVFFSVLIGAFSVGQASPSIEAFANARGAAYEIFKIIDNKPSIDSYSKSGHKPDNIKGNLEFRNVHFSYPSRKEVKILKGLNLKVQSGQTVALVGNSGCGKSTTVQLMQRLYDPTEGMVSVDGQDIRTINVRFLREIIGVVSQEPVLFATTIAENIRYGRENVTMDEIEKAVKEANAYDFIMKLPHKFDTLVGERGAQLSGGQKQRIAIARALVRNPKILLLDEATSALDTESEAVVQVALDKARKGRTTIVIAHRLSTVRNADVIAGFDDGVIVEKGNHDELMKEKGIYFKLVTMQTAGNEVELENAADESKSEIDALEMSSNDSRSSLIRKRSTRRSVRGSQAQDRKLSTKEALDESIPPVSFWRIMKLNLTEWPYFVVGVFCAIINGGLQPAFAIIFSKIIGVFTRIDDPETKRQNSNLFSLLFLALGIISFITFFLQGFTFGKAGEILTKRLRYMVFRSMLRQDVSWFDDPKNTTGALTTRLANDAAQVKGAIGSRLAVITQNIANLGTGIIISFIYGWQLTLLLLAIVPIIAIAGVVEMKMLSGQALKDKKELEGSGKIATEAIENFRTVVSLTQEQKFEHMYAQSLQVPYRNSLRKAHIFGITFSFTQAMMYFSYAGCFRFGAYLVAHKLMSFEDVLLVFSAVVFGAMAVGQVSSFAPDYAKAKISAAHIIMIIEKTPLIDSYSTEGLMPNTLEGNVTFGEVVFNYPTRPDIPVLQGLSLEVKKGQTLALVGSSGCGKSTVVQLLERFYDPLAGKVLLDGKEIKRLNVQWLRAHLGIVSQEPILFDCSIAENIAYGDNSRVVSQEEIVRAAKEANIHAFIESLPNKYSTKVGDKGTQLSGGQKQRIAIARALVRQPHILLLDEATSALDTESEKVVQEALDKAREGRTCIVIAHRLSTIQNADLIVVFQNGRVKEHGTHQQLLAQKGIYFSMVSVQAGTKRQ

Regarding `C[C@H]1C[C@@H]2[C@H]([C@@H](O)C[C@@]3(C)[C@H]2CC[C@]3(O)C(=O)CO)[C@@]2(C)C=CC(=O)C=C12` [METHYLPREDNISOLONE], the Activity result is “substrate [+]”.
